How the values were obtained:
A2780 ovarian cells [1] = experiment: A2780 ovarian cell proliferation assay in lipid reduced medium, with palmitate (MTT); assay type: cell-based; settings: Homo sapiens, A2780, 96 h; read-out: pIC50 A2780 Ovarian Cell, With Palmitate (converted)
Protocol: (§1) The biological assays described below correspond to comparative assays for ovarian cell proliferation. […] Compounds active in the absence of palmitate would not be expected to be active in the control.
(§2) 2500 cells were seeded in a 96-well clear well plate in 200 μL RPMI1640 with 10% Fetal Calf Serum (Hyclone), and incubated at 37° C., 5% CO2. Blanks were wells without cells. The next day the culture medium was aspirated and replaced by 160 μL culture medium with 10% Lipid-Reduced Serum (LRS, Hyclone). 20 μL test compound (at concentrations of 30 μM, 10 μM, 3 μM, 1 μM, 0.30 μM, 0.10 μM, 0.03 μM and 0.01 μM)/DMSO dilution followed by 20 μL palmitate-BSA solution were added to a final concentrations of 0.2% DMSO, 25 μM palmitate (Sigma, P0500, 10 mM stock solution in ethanol) 0.2% fatty-acid-free BSA, 0.25% ethanol. After 96 h incubation, an MTT assay was performed. The absorbance was measured at 544 nm on a SPECTRAMAX brand microplate reader (Molecular Devices).
A best fit curve was fitted by a minimum sum of squares method, plotting Controlmin versus test compound concentration.
(§3) Representative compounds of the present invention were tested according to the procedure as described in Biological Example 3 above, with results as listed in Table 8, below.

[2] = molecular target: T1, hFASN enzyme (full length) (Homo sapiens, UniProt P49327); experiment: Fatty Acid Synthase (FASN) inhibition scintillation proximity assay; assay type: biochemical; settings: for inhibition at 10 µM: read-out: Human FASN % inhibition @ 10 μM, 10 μM test compound; for IC50: read-out: Human FASN pIC50 (converted)
T1 construct: 10 μL hFASN enzyme (full length, 300 ng, purified in house); made in house
T1 sequence (P49327 whole entry): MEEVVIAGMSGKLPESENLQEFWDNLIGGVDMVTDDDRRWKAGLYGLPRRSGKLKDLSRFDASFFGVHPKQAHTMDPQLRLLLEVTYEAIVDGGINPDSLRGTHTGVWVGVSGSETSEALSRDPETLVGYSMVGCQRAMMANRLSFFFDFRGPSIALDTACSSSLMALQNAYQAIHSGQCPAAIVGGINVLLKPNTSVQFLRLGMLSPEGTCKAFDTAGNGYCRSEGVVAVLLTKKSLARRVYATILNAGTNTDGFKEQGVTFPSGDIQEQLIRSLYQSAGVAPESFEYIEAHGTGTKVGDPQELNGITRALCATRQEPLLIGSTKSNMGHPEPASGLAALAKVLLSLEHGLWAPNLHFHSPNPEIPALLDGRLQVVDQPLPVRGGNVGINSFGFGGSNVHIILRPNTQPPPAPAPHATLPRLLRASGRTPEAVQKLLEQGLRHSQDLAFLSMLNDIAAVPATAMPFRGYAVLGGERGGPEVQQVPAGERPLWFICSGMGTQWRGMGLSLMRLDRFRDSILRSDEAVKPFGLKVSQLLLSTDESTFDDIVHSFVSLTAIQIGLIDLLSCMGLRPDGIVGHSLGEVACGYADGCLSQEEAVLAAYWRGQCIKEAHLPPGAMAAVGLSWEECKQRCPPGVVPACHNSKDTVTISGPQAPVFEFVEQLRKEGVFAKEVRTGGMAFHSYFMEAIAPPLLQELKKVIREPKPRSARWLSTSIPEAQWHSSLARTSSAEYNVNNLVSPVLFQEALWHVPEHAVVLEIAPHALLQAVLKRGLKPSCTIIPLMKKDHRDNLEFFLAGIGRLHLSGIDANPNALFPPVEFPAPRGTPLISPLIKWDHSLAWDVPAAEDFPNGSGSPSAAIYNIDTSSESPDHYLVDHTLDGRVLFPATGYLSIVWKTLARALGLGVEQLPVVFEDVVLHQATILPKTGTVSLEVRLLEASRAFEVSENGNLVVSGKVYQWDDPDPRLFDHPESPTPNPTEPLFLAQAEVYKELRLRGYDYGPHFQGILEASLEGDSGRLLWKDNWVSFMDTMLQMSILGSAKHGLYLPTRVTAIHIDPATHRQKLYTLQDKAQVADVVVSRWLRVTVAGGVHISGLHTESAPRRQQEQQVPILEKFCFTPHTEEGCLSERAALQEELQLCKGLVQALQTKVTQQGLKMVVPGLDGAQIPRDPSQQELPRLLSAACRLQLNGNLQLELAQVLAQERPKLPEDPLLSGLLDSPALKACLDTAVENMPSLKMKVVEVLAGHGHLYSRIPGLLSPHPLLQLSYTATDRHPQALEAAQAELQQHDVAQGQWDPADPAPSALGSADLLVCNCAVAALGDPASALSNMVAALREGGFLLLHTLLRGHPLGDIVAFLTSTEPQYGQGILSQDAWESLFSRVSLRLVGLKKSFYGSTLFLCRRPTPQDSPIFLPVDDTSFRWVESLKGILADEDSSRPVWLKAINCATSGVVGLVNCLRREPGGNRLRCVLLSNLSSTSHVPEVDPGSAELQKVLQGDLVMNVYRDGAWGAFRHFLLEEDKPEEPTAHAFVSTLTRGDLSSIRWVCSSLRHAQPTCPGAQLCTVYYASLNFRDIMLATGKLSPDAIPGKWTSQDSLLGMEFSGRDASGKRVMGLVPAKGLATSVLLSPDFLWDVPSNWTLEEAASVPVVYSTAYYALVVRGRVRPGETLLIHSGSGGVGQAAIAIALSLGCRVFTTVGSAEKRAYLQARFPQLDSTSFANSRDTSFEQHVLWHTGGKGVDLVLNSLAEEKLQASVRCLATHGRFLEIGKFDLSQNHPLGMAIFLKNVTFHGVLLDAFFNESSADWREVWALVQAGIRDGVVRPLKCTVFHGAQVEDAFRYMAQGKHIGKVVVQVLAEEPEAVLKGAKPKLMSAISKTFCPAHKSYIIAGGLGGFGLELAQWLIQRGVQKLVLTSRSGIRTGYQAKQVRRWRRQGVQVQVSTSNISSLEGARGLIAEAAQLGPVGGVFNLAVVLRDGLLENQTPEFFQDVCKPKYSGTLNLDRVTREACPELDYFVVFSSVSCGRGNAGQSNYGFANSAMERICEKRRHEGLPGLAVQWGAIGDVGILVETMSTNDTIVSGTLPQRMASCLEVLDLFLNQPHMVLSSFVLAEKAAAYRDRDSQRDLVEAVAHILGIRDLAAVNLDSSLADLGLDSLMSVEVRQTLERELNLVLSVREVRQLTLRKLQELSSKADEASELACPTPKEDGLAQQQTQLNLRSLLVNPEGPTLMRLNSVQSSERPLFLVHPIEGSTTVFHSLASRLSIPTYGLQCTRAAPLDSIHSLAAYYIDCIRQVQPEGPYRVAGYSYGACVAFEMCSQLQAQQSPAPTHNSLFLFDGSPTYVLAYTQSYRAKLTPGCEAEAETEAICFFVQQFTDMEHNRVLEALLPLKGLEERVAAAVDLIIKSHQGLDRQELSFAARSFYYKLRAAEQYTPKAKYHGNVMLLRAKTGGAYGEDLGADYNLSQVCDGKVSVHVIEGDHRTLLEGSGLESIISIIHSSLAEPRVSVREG
How it was run: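 Proximity read-out: hydrophobic ^3H-palmitate formed from ^3H-acetyl-CoA and malonyl-CoA binds streptavidin imaging beads, imaged at 610±20 nm at least 24 h after stopping. Enzyme was in-house purified full-length hFASN, 300 ng, in pH 7.5 phosphate/DTT buffer; compound series 30 μM down to 0.01 μM, normalized to controls, 4-parameter fit.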

A2780 ovarian cells [3] = experiment: A2780 ovarian cell proliferation assay in lipid reduced medium, without palmitate (MTT); assay type: cell-based; settings: Homo sapiens, A2780, 96 h; read-out: pIC50 A2780 Ovarian Cell, Without Palmitate (converted)
Protocol: as §1
as §2, with “ethanol-BSA” for “palmitate-BSA”, “DMSO,” for “DMSO, 25 μM palmitate (Sigma, P0500, 10 mM stock solution in ethanol)”, “incubation” for “incubation,”
where mLC and mHC were the means of the low control wells and high control wells on the plate, after manual exclusion of outliers. A plot of Controlmin versus test compound concentration was fitted to a 4-parameter logistic curve using a non-linear least squares regression method.
as §3

| IC50 (A2780 ovarian cells [1]) [µM] | inhibition at 10 µM [2] [%] | IC50 (A2780 ovarian cells [3]) [µM] | IC50 [2] [µM] | SMILES |
| --- | --- | --- | --- | --- |
| 7.76 | 53 | 6.61 |  | Cc1cc(Cl)c2ccc(-c3ccc(C4=NC5(CC5)C(=O)N4CC4CN(C(=O)C5CC5)C4)cc3)cc2n1 [compound 535, 5-[4-(4-Chloro-2-methylquinolin-7-yl)phenyl]-6-{[1-(cyclopropylcarbonyl)azetidin-3-yl]methyl}-4,6-diazaspiro[2.4]hept-4-en-7-one] |
| > 10 | 54 | > 10 | ~6.31 | O=C(C1CC1)N1CC(CN2C(=O)C3(CC3)N=C2c2ccc(-c3ccc4nncn4c3)cc2)C1 [compound 539, 6-{[1-(Cyclopropylcarbonyl)azetidin-3-yl]methyl}-5-(4-[1,2,4]triazolo[4,3-a]pyridin-6-ylphenyl)-4,6-diazaspiro[2.4]hept-4-en-7-one] |
| 9.33 | 64 | 4.47 | 5.01 | O=C(C1CC1)N1CC(CN2C(=O)C3(CC3)N=C2c2ccc(-c3ccc4ccc(Cl)nc4c3)cc2)C1 [compound 540, 5-[4-(2-Chloroquinolin-7-yl)phenyl]-6-{[1-(cyclopropylcarbonyl)azetidin-3-yl]methyl}-4,6-diazaspiro[2.4]hept-4-en-7-one] |
| > 10 | 83 | 3.8 | 1.78 | O=C(C1CC1)N1CC(CN2C(=O)C3(CC3)N=C2c2ccc(-c3ccc4nn(CCO)cc4c3)cc2)C1 [compound 549, 6-{[1-(Cyclopropylcarbonyl)azetidin-3-yl]methyl}-5-{4-[2-(2-hydroxyethyl)-2H-indazol-5-yl]phenyl}-4,6-diazaspiro[2.4]hept-4-en-7-one] |
| ~10 | 80 | 3.47 | 1.82 | CC(C)n1ncc2ccc(-c3ccc(C4=NC5(CC5)C(=O)N4CC4CN(C(=O)C5CC5)C4)cc3)cc21 [compound 550, 6-{[1-(Cyclopropylcarbonyl)azetidin-3-yl]methyl}-5-{4-[1-(1-methylethyl)-1H-indazol-6-yl]phenyl}-4,6-diazaspiro[2.4]hept-4-en-7-one] |
| > 10 | 66 | 1.7 | 4.9 | O=C(C1CC1)N1CC(CN2C(=O)C3(CC3)N=C2c2ccc(-c3cc4cnn(CCO)c4cc3F)cc2)C1 [compound 552, 6-{[1-(Cyclopropylcarbonyl)azetidin-3-yl]methyl}-5-{4-[6-fluoro-1-(2-hydroxyethyl)-1H-indazol-5-yl]phenyl}-4,6-diazaspiro[2.4]hep-t-4-en-7-one] |
| > 10 | 85 | 2.75 | 1.35 | O=C(C1CC1)N1CC(CN2C(=O)C3(CC3)N=C2c2ccc(-c3cc4cn(CCO)nc4cc3F)cc2)C1 [compound 553, 6-{[1-(Cyclopropylcarbonyl)azetidin-3-yl]methyl}-5-{4-[6-fluoro-2-(2-hydroxyethyl)-2H-indazol-5-yl]phenyl}-4,6-diazaspiro[2.4]hept-4-en-7-one] |
| > 10 | 75 | ~5.13 | 1.86 | Cc1cc2ccc(-c3ccc(C4=NC5(CC5)C(=O)N4CC4CN(C(=O)C5CC5)C4)cc3)cc2nc1Cl [compound 555, 5-[4-(2-Chloro-3-methylquinolin-7-yl)phenyl]-6-{[1-(cyclopropylcarbonyl)azetidin-3-yl]methyl}-4,6-diazaspiro[2.4]hept-4-en-7-one] |
| > 10 | 61 | 5.89 | 5.25 | O=C(C1CC1)N1CC(CN2C(=O)C3(CC3)N=C2c2ccc(-c3ccc4c(cnn4CCO)c3)cc2)C1 [compound 556, 6-{[1-(Cyclopropylcarbonyl)azetidin-3-yl]methyl}-5-{4-[1-(2-hydroxyethyl)-1H-indazol-5-yl]phenyl}-4,6-diazaspiro[2.4]hept-4-en-7-one] |
| > 10 | 59 | 9.33 | 6.03 | Cc1cc(Cl)nc2cc(-c3ccc(C4=NC5(CC5)C(=O)N4CC4CN(C(=O)C5CC5)C4)cc3)ccc12 [compound 559, 5-[4-(2-Chloro-4-methylquinolin-7-yl)phenyl]-6-{[1-(cyclopropylcarbonyl)azetidin-3-yl]methyl}-4,6-diazaspiro[2.4]hept-4-en-7-one] |
| > 10 | 68 | ~7.59 | 3.72 | O=C(C1CC1)N1CC(CN2C(=O)C3(CC3)N=C2c2ccc(-c3cnc4c(F)cccc4c3)cc2)C1 [compound 560, 6-{[1-(Cyclopropylcarbonyl)azetidin-3-yl]methyl}-5-[4-(8-fluoroquinolin-3-yl)phenyl]-4,6-diazaspiro[2.4]hept-4-en-7-one] |
| > 10 | 56 | > 10 | ~7.24 | Cc1ccc2ccc(-c3ccc(C4=NC5(CC5)C(=O)N4CC4CN(C(=O)C5CC5)C4)cc3)c(F)c2n1 [compound 561, 6-{[1-(Cyclopropylcarbonyl)azetidin-3-yl]methyl}-5-[4-(8-fluoro-2-methylquinolin-7-yl)phenyl]-4,6-diazaspiro[2.4]hept-4-en-7-one] |
| > 10 | 88 | 3.16 | 0.631 | O=C(C1CC1)N1CC(CN2C(=O)C3(CC3)N=C2c2ccc(-c3ccc4c(Cl)ccnc4c3)cc2)C1 [compound 563, 5-[4-(4-Chloroquinolin-7-yl)phenyl]-6-{[1-(cyclopropylcarbonyl)azetidin-3-yl]methyl}-4,6-diazaspiro[2.4]hept-4-en-7-one] |
| > 10 | 97 | 0.525 | 0.263 | Cc1cc(-c2ccc3c(cnn3C)c2)ccc1C1=NC2(CC2)C(=O)N1CC1CN(C(=O)C2(N)CC2)C1 [compound 564, 6-({1-[(1-Aminocyclopropyl)carbonyl]azetidin-3-yl}methyl)-5-[2-methyl-4-(1-methyl-1H-indazol-5-yl)phenyl]-4,6-diazaspiro[2.4]hept-4-en-7-one] |
| 2.4 | 89 | 0.0468 | 0.129 | Cn1cc(CCO)c2cc(-c3ccc(C4=NC5(CC5)C(=O)N4CC4CN(C(=O)C5CC5)C4)c(F)c3)ccc21 [compound 568, 6-{[1-(Cyclopropylcarbonyl)azetidin-3-yl]methyl}-5-{2-fluoro-4-[3-(2-hydroxyethyl)-1-methyl-1H-indol-5-yl]phenyl}-4,6-diazaspiro[2.4]hept-4-en-7-one] |
| 2.19 | 86 | 0.204 | 0.209 | Cc1cc2cc(-c3ccc(C4=NC5(CC5)C(=O)N4CC4CN(C(=O)C5CC5)C4)c(F)c3)ccc2n1C [compound 569, 6-{[1-(Cyclopropylcarbonyl)azetidin-3-yl]methyl}-5-[4-(1,2-dimethyl-1H-indol-5-yl)-2-fluorophenyl]-4,6-diazaspiro[2.4]hept-4-en-7-one] |
| > 10 | 65 | ~5.25 | 4.17 | Cc1cc(C)c2ccc(-c3ccc(C4=NC5(CC5)C(=O)N4CC4CN(C(=O)C5CC5)C4)cc3)cc2n1 [compound 570, 6-{[1-(Cyclopropylcarbonyl)azetidin-3-yl]methyl}-5-[4-(2,4-dimetrhylquinolin-7-yl)phenyl]-4,6-diazaspiro[2.4]hept-4-en-7-one] |
| > 10 | 79 | 0.977 | 1.38 | Cc1cc(-c2cccc(NC(=O)C3CC3)c2)ccc1C1=NC2(CC2)C(=O)N1CC1CN(C(=O)C2CC2)C1 [compound 571, N-[4′-(6-{[1-(Cyclopropylcarbonyl)azetidin-3-yl}methyl]-7-oxo-4,6-diazaspiro[2.4]hept-4-en-5-yl)-3′-methylbiphenyl-3-yl]cyclopropanecarboxamide] |

Reference: patent US10077261B2, “Imidazolin-5-one derivative useful as FASN inhibitors for the treatment of cancer” (Janssen Pharmaceutica NV, priority 2012, dated 2018)
